Laboratory results from US8841233B2, “Herbicidal compositions comprising 4-amino-3-chloro-5-fluoro-6-(4-chloro-2-fluoro-3-methoxyphenyl) pyridine-2-carboxylic acid or a derivative thereof and 4-hydroxyphenyl-pyruvate dioxygenase (HPPD) inhibitors” (Dow Agrosciences LLC, priority 2012, dated 2014).

Columns and labels:
[1] = test system: ECHCO; assay: Post-emergence foliar-applied weed control, greenhouse (Example I); assay type: in vivo, Echinochloa colona (L.) Link
From the text: (§1) Evaluation of Post-emergence Foliar-Applied Herbicidal Mixtures for Weed Control in Direct Seeded Rice
(§2) Seeds or nutlets of the desired test plant species were planted in a soil matrix prepared by mixing a loam or sandy loam soil (e.g., 28.6 percent silt, 18.8 percent clay, and 52.6 percent sand, with a pH of about 5.8 and an organic matter content of about 1.8 percent) and calcareous grit in an 80 to 20 ratio. The soil matrix was contained in plastic pots with a volume of 1 quart and a surface area of 83.6 square centimeters (cm^2). When required to ensure good germination and healthy plants, a fungicide treatment and/or other chemical or physical treatment was applied. The plants were grown for 8-22 days in a greenhouse with an approximate 14 h photoperiod which was maintained at about 29° C. during the day and 26° C. during the night. Nutrients (Peters Excel® 15-5-15 5-Ca 2-Mg and iron chelate) were applied in the irrigation solution as needed and water was added on a regular basis. Supplemental lighting was provided with overhead metal halide 1000-Watt lamps as necessary. The plants were employed for testing when they reached the first through fourth true leaf stage.
(§3) Treatments consisted of the acid or esters of 4-amino-3-chloro-5-fluoro-6-(4-chloro-2-fluoro-3-methoxy-phenyl)pyridine-2-carboxylic acid (Compound A), each formulated as an SC (suspension concentrate), and various herbicidal components alone and in combination. Forms of Compound A were applied on an acid equivalent basis.
(§4) Other herbicidal components were applied on an active ingredient basis and included 4-hydroxyphenyl pyruvate dioxygenase (HPPD)-inhibiting herbicides mesotrione formulated as Callisto®, sulcotrione formulated as Mikado®, pyrazolynate formulated as Sunbird® 10% GR, and benzobicyclon formulated as Benzobicyclon 3.5%.
(§5) Treatment requirements were calculated based upon the rates being tested, the concentration of active ingredient or acid equivalent in the formulation, and a 12 mL application volume at a rate of 187 L/ha.
(§6) For treatments comprised of formulated compounds, measured amounts of compounds were placed individually in 25 mL glass vials and diluted in a volume of 1.25% (v/v) Agri-Dex® crop oil concentrated to obtain 12× stock solutions. […] Application solutions were prepared by adding an appropriate amount of each stock solution (e.g., 1 mL) and diluted to the appropriate final concentrations with the addition of 10 mL of an aqueous mixture of 1.25% (v/v) crop oil concentrate so that the final spray solutions contained 1.25+/−0.05% (v/v) crop oil concentrate.
(§7) For treatments comprised of formulated and technical compounds, weighed amounts of the technical materials were placed individually in 25 mL glass vials and dissolved in a volume of 97:3 v/v acetone/DMSO to obtain 12× stock solutions, and measured amounts of the formulated compounds were placed individually in 25 mL glass vials and diluted in a volume of 1.5% (v/v) crop oil concentrate or water to obtain 12× stock solutions. […] Application solutions were prepared by adding an appropriate amount of each stock solution (e.g., 1 mL) and diluted to the appropriate final concentrations with the addition of an appropriate amount of an aqueous mixture of 1.5% (v/v) crop oil concentrate so that the final spray solutions contained 1.25% (v/v) crop oil concentrate. As required, additional water and/or 97:3 v/v acetone/DMSO was added to individual application solutions so that the final acetone and DMSO concentrations of the application solutions being compared were 8.1% and 0.25%, respectively.
(§8) All stock solutions and applications solutions were visually inspected for compound compatibility prior to application. Spray solutions were applied to the plant material with an overhead Mandel track sprayer equipped with a 8002E nozzles calibrated to deliver 187 L/ha over an application area of 0.503 m^2 at a spray height of 18 to 20 inches (46 to 50 cm) above average plant canopy height. […]

[2] = test system: CYPIR; assay: as above; assay type: in vivo, Cyperus iria L.
From the text: as §1, §2, §3, §4, §5, §6, §7, §8

[3] = test system: SCPJU; assay: as above; assay type: in vivo, Schoenoplectus juncoides (Roxb.) Palla
From the text: as §1, §2, §3, §4, §5, §6, §7, §8

[4] = test system: ECHCG; assay: as above; assay type: in vivo, Echinochloa crusgalli (L.) Beauv.
From the text: as §1, §2, §3, §4, §5, §6, §7, §8

[5] = test system: ECHCG; assay: In-water applied weed control, transplanted paddy rice, greenhouse (Example II); assay type: in vivo, Echinochloa crusgalli (L.) Beauv.; details: Benzobicyclon (3.5%)
Description: (§9) Evaluation of in-Water Applied Herbicidal Mixtures for Weed Control in Transplanted Paddy Rice
(§10) Weed seeds or nutlets of the desired test plant species were planted in puddled soil (mud) prepared by mixing a shredded, non-sterilized mineral soil (50.5 percent silt, 25.5 percent clay, and 24 percent sand, with a pH of about 7.6 and an organic matter content of about 2.9 percent) and water at a 1:1 volumetric ratio. The prepared mud was dispensed in 365 mL aliquots into 16-ounce (oz.) non-perforated plastic pots with a surface area of 86.59 square centimeters (cm^2) leaving a headspace of 3 centimeters (cm) in each pot. Mud was allowed to dry overnight prior to planting or transplanting. Rice seeds were planted in Sun Gro MetroMix® 306 planting mixture, which typically has a pH of 6.0 to 6.8 and an organic matter content of about 30 percent, in plastic plug trays. Seedlings at the second or third leaf stage of growth were transplanted into 840 mL of mud contained in 32-oz. non-perforated plastic pots with a surface area of 86.59 cm^2 4 days prior to herbicide application. The paddy was created by filling the headspace of the pots with 2.5 to 3 cm of water. When required to ensure good germination and healthy plants, a fungicide treatment and/or other chemical or physical treatment was applied. The plants were grown for 4-22 days in a greenhouse with an approximate 14 h photoperiod which was maintained at about 29′C during the day and 26° C. during the night. Nutrients were added as Osmocote® (19:6:12, N:P:K+ minor nutrients) at 2 g per 16-oz. pot and 4 g per 32-oz. pot. Water was added on a regular basis to maintain the paddy flood, and supplemental lighting was provided with overhead metal halide 1000-Watt lamps as necessary. The plants were employed for testing when they reached the first through fourth true leaf stage.
(§11) Treatments consisted of the acid or esters of 4-amino-3-chloro-5-fluoro-6-(4-chloro-2-fluoro-3-methoxy-phenyl)pyridine-2-carboxylic acid (compound A) each formulated as an SC (suspension concentrate) and various herbicidal components alone and in combination. Forms of compound A were applied on an acid equivalent basis.
(§12) Other herbicidal components were applied on an active ingredient basis and included 4-hydroxyphenyl pyruvate dioxygenase (HPPD)-inhibiting herbicides mesotrione formulated as Callisto®, sulcotrione formulated as Mikado®, pyrazolynate formulated as Sunbird® 10% GR, and benzobicyclon formulated as Benzobicyclon 3.5% or technical material.
(§13) Treatment requirements for each compound or herbicidal component were calculated based upon the rates being tested, the concentration of active ingredient or acid equivalent in the formulation, an application volume of 2 mL per component per pot, and an application area of 86.59 cm^2 per pot.
(§14) For formulated compounds, a measured amount was placed in an individual 100 or 200 mL glass vial and was dissolved in a volume of 1.25% (v/v) Agri-Dex® crop oil concentrate to obtain application solutions.
(§15) For technical grade compounds, a weighed amount was placed in an individual 100 to 200 mL glass vial and was dissolved in a volume of acetone to obtain concentrated stock solutions. […] The concentrated stock solutions obtained were diluted with an equivalent volume of an aqueous mixture containing 2.5% (v/v) crop oil concentrate so that the final application solutions contained 1.25% (v/v) crop oil concentrate.
(§16) Applications were made by injecting with a pipetter appropriate amounts of the application solutions, individually and sequentially, into the aqueous layer of the paddy. Control plants were treated in the same manner with the solvent blank. Applications were made so that all treated plant material received the same concentrations of acetone and crop oil concentrate.
(§17) The treated plants and control plants were placed in a greenhouse as described above and water was added as needed to maintain a paddy flood. […]

[6] = test system: ECHOR; assay: as above; assay type: in vivo, Echinochloa oryzoides (Ard.) Fritsch
Description: as §9, §10, §11, §12, §13, §14, §15, §16, §17

[7] = test system: SCPMA; assay: as above; assay type: in vivo
Description: as §9, §10, §11, §12, §13, §14, §15, §16, §17

[8] = test system: CYPRO; assay: as above; assay type: in vivo, Cyperus rotundus L.
Description: as §9, §10, §11, §12, §13, §14, §15, §16, §17

[9] = 50 gai/ha, Benzobicyclon (technical)
[10] = 100 gae/ha, Benzobicyclon (technical)
[11] = 100 gai/ha, Benzobicyclon (3.5%)
[12] = 200 gai/ha, Benzobicyclon (3.5%)

## CS(=O)(=O)c1ccc(C(=O)C2=C(Sc3ccccc3)C3CCC(C3)C2=O)c(Cl)c1 (stereo not shown) [Benzobicyclon, 3-(2-chloro-4-mesylbenzoyl)-2-phenylthiobicyclo[3.2.1]oct-2-en-4-one, reference compound]
[1]; 50 gai/ha
  Visual Weed Control (%) - 22 DAA ECHCO Obs: 10%
[1]; 100 gai/ha
  Visual Weed Control (%) - 22 DAA ECHCO Obs: 10%
[1]; 200 gai/ha
  Visual Weed Control (%) - 22 DAA ECHCO Obs: 85%
[2]; 100 gai/ha
  Visual Weed Control (%) - 22 DAA CYPIR Obs: 0%
[2]; 200 gai/ha
  Visual Weed Control (%) - 22 DAA CYPIR Obs: 0%
[3]; 50 gai/ha
  Visual Weed Control (%) - 22 DAA SCPJU Obs: 50%
[3]; 100 gai/ha
  Visual Weed Control (%) - 22 DAA SCPJU Obs: 60%
[3]; 200 gai/ha
  Visual Weed Control (%) - 22 DAA SCPJU Obs: 70%
[4]; 50 gai/ha
  Visual Weed Control (%) - 22 DAA ECHCG Obs: 0%
[4]; 100 gai/ha
  Visual Weed Control (%) - 22 DAA ECHCG Obs: 20%
[4]; 200 gai/ha
  Visual Weed Control (%) - 22 DAA ECHCG Obs: 15%
[5]; 100 gai/ha
  Visual Weed Control (%) - 22 DAA ECHCG Obs: 30%
[5]; 200 gai/ha
  Visual Weed Control (%) - 22 DAA ECHCG Obs: 45%
[6]; [9]
  Visual Weed Control (%) - 22 DAA ECHOR Obs: 50%
[6]; [10]
  Visual Weed Control (%) - 21 DAA ECHOR Obs: 30%
[7]; [10]
  Visual Weed Control (%) - 21 DAA SCPMA Obs: 80%
[7]; [11]
  Visual Weed Control (%) - 21 DAA SCPMA Obs: 70%
[7]; [12]
  Visual Weed Control (%) - 21 DAA SCPMA Obs: 93%
[8]; [9]
  Visual Weed Control (%) - 22 DAA CYPRO Obs: 10%
[8]; [11]
  Visual Weed Control (%) - 22 DAA CYPRO Obs: 30%
[8]; [12]
  Visual Weed Control (%) - 22 DAA CYPRO Obs: 45%

## CCCCOC(=O)c1nc(-c2ccc(Cl)c(OC)c2F)c(F)c(N)c1Cl [Compound A n-Butyl Ester]
[4]; 17.5 gae/ha
  Visual Weed Control (%) - 21 DAA ECHCG Obs: 78%
[4]; 35 gae/ha
  Visual Weed Control (%) - 21 DAA ECHCG Obs: 93%
[6]; 35 gae/ha
  Visual Weed Control (%) -20 DAA ECHOR Obs: 35%
[6]; 70 gae/ha
  Visual Weed Control (%) -20 DAA ECHOR Obs: 40%
